Assay results as given in patent US9469650B2, “Melampomagnolide B derivatives” (BOARD OF TRUSTEES OF THE UNIVERSITY OF ARKANSAS, priority 2013, dated 2016).

Key:
HOP-92 = test: panel of 60 human tumor cell lines, growth inhibition (Non-Small Cell Lung Cancer); conditions: HOP-92
CCRF-CEM = test: panel of 60 human tumor cell lines, growth inhibition (Leukemia)
COLO 205 = test: panel of 60 human tumor cell lines, growth inhibition (Colon Cancer); conditions: COLO 205
RXF 393 = test: panel of 60 human tumor cell lines, growth inhibition (Renal Cancer); conditions: RXF 393
TK-10 = test: as above; conditions: TK-10
OVCAR-8 = test: panel of 60 human tumor cell lines, growth inhibition (Ovarian Cancer); conditions: OVCAR-8
A549/ATCC = test: panel of 60 human tumor cell lines, growth inhibition (Non-Small Cell Lung Cancer); conditions: A549/ATCC
NCI-H23 = test: as above; conditions: NCI-H23
HCT-15 = test: panel of 60 human tumor cell lines, growth inhibition (Colon Cancer); conditions: HCT-15

## C=C1C(=O)O[C@H]2[C@H]1CC/C(COC(=O)N1CCN(C)CC1)=C\CC[C@@]1(C)O[C@@H]21 [JVM 2-44]
HOP-92
  GI50: 2.95 µM
  TGI: 1.48E−5
HOP-92; Log10 Concentration −4.0
  Mean Optical Densities: 0.116
  Percent Growth: −87%
HOP-92; Log10 Concentration −5.0
  Mean Optical Densities: 0.995
  Percent Growth: 18%
HOP-92; Log10 Concentration −6.0
  Mean Optical Densities: 1.307
  Percent Growth: 79%
HOP-92; Log10 Concentration −7.0
  Mean Optical Densities: 1.345
  Percent Growth: 86%
HOP-92; Log10 Concentration −8.0
  Mean Optical Densities: 1.394
  Percent Growth: 95%
CCRF-CEM
  GI50: 3.06 µM
  TGI: 1.84E−5
CCRF-CEM; Log10 Concentration −4.0
  Mean Optical Densities: 0.393
  Percent Growth: −25%
CCRF-CEM; Log10 Concentration −5.0
  Mean Optical Densities: 0.689
  Percent Growth: 9%
CCRF-CEM; Log10 Concentration −6.0
  Mean Optical Densities: 2.185
  Percent Growth: 89%
CCRF-CEM; Log10 Concentration −7.0
  Mean Optical Densities: 2.250
  Percent Growth: 92%
CCRF-CEM; Log10 Concentration −8.0
  Mean Optical Densities: 2.265
  Percent Growth: 93%
COLO 205
  GI50: 4.44 µM
  TGI: 1.76E−5
COLO 205; Log10 Concentration −4.0
  Mean Optical Densities: 0.159
  Percent Growth: −67%
COLO 205; Log10 Concentration −5.0
  Mean Optical Densities: 0.767
  Percent Growth: 22%
COLO 205; Log10 Concentration −6.0
  Mean Optical Densities: 1.790
  Percent Growth: 101%
COLO 205; Log10 Concentration −7.0
  Mean Optical Densities: 1.715
  Percent Growth: 95%
COLO 205; Log10 Concentration −8.0
  Mean Optical Densities: 1.784
  Percent Growth: 100%
RXF 393
  GI50: 2.55 µM
  TGI: 8.91E−6
RXF 393; Log10 Concentration −4.0
  Mean Optical Densities: 0.329
  Percent Growth: −71%
RXF 393; Log10 Concentration −5.0
  Mean Optical Densities: 1.871
  Percent Growth: −5%
RXF 393; Log10 Concentration −6.0
  Mean Optical Densities: 1.644
  Percent Growth: 87%
RXF 393; Log10 Concentration −7.0
  Mean Optical Densities: 1.692
  Percent Growth: 96%
RXF 393; Log10 Concentration −8.0
  Mean Optical Densities: 1.646
  Percent Growth: 88%
TK-10
  GI50: 3.91 µM
  TGI: 1.53E−5
TK-10; Log10 Concentration −4.0
  Mean Optical Densities: 0.069
  Percent Growth: −94%
TK-10; Log10 Concentration −5.0
  Mean Optical Densities: 1.338
  Percent Growth: 21%
TK-10; Log10 Concentration −6.0
  Mean Optical Densities: 2.166
  Percent Growth: 92%
TK-10; Log10 Concentration −7.0
  Mean Optical Densities: 2.198
  Percent Growth: 95%
TK-10; Log10 Concentration −8.0
  Mean Optical Densities: 2.185
  Percent Growth: 94%
OVCAR-8
  GI50: 11.1 µM
  TGI: 3.06E−5
OVCAR-8; Log10 Concentration −4.0
  Mean Optical Densities: 0.184
  Percent Growth: −61%
OVCAR-8; Log10 Concentration −5.0
  Mean Optical Densities: 1.385
  Percent Growth: 59%
OVCAR-8; Log10 Concentration −6.0
  Mean Optical Densities: 1.997
  Percent Growth: 98%
OVCAR-8; Log10 Concentration −7.0
  Mean Optical Densities: 2.055
  Percent Growth: 102%
OVCAR-8; Log10 Concentration −8.0
  Mean Optical Densities: 2.052
  Percent Growth: 101%
A549/ATCC
  GI50: 20.5 µM
  TGI: 6.23E−5
A549/ATCC; Log10 Concentration −4.0
  Mean Optical Densities: 0.267
  Percent Growth: −21%
A549/ATCC; Log10 Concentration −5.0
  Mean Optical Densities: 1.536
  Percent Growth: 82%
A549/ATCC; Log10 Concentration −6.0
  Mean Optical Densities: 1.748
  Percent Growth: 97%
A549/ATCC; Log10 Concentration −7.0
  Mean Optical Densities: 1.802
  Percent Growth: 101%
A549/ATCC; Log10 Concentration −8.0
  Mean Optical Densities: 1.778
  Percent Growth: 99%
NCI-H23
  GI50: 11.8 µM
  TGI: 3.12E−5
NCI-H23; Log10 Concentration −4.0
  Mean Optical Densities: 0.244
  Percent Growth: −60%
NCI-H23; Log10 Concentration −5.0
  Mean Optical Densities: 1.347
  Percent Growth: 58%
NCI-H23; Log10 Concentration −6.0
  Mean Optical Densities: 1.872
  Percent Growth: 100%
NCI-H23; Log10 Concentration −7.0
  Mean Optical Densities: 1.838
  Percent Growth: 97%
NCI-H23; Log10 Concentration −8.0
  Mean Optical Densities: 1.849
  Percent Growth: 98%
HCT-15
  GI50: 3.01 µM
  TGI: 1.42E−5
HCT-15; Log10 Concentration −4.0
  Mean Optical Densities: 0.108
  Percent Growth: −71%
HCT-15; Log10 Concentration −5.0
  Mean Optical Densities: 0.643
  Percent Growth: 13%
HCT-15; Log10 Concentration −6.0
  Mean Optical Densities: 2.210
  Percent Growth: 84%
HCT-15; Log10 Concentration −7.0
  Mean Optical Densities: 2.370
  Percent Growth: 92%
HCT-15; Log10 Concentration −8.0
  Mean Optical Densities: 2.435
  Percent Growth: 94%
